Several values for one entry are separate records, joined by “and”; a condition that tells them apart may be missing. Equal values may be shown once.
Test: Part 2 MAD plasma pharmacokinetics, BID oral KAR5585 for 14 days
[1] = 100 mg (Cohort 2) to 400 mg (Cohort 4) BID fed, 4-fold increase in dose
[2] = 100 mg/dose BID Fasted, Cohort 1, Day 1 AM
[3] = 100 mg/dose BID Fasted, Cohort 1, Day 14
[4] = 100 mg/dose BID Fed, Cohort 2, Day 1 AM
[5] = 100 mg/dose BID Fed, Cohort 2, Day 1 PM
[6] = 100 mg/dose BID Fed, Cohort 2, Day 7 AM
[7] = 100 mg/dose BID Fed, Cohort 2, Day 7 PM
[8] = 100 mg/dose BID Fed, Cohort 2, Day 14
[9] = 200 mg/dose BID Fed, Cohort 3, Day 1 AM
[10] = 400 mg/dose BID Fed, Cohort 4, Day 1 AM
[11] = 400 mg/dose BID Fed, Cohort 4, Day 1 PM
[12] = 400 mg/dose BID Fed, Cohort 4, Day 7 AM
[13] = 400 mg/dose BID Fed, Cohort 4, Day 7 PM
[14] = 400 mg/dose BID Fed, Cohort 4, Day 14 (last block, /D fits 400 mg)
[15] = Day 7 AM, blank dose cell under 400/Fed Cohort 4, /D fits 200 mg Fed Cohort 3
[16] = Day 7 AM, blank dose cell under 400/Fed Cohort 4, likely 200 mg Fed Cohort 3
[17] = Day 7 PM (3rd 7/PM block), blank dose cell under 400/Fed Cohort 4, /D fits 200 mg Fed Cohort 3
[18] = Day 7 PM, blank dose cell under 400/Fed Cohort 4, /D fits 200 mg Fed Cohort 3
[19] = Day 14 (first Day 14 block), blank dose cell under 400/Fed Cohort 4, /D fits 200 mg Fed Cohort 3

Description: Food effect was to be evaluated in Part 1, Period 2.
Part 2 (MAD): BID doses (separated by approximately 12 hours on Days 1 to 13) and a single AM dose on Day 14. One or more of the MAD Cohort could have been dosed once daily (QD).
Pharmacokinetic data were to be summarized descriptively.

## CCOC(=O)[C@@H]1CC2(CCN(c3cc(O[C@H](c4ccc(Cl)cc4-c4ccccc4)C(F)(F)F)nc(N)n3)CC2)CN1 [KAR5585, (S)-ethyl 8-(2-amino-6-((R)-1-(5-chloro-[1,1′-biphenyl]-2-yl)-2,2,2-trifluoroethoxy)pyrimidin-4-yl)-2,8-diazaspiro[4.5]decane-3-carboxylate]
[1]
  increase in mean AUC0-12, Day 1: 5.1 fold
  increase in mean AUC0-12, Day 14: 3.1 fold
  increase in mean AUC0-24, Day 1: 3.6 fold
  increase in mean AUC0-24, Day 14: 3.6 fold and 3.63 fold
  increase in mean Cmax, Day 1: 4.4 fold
  increase in mean Cmax, Day 14: ~3.0 fold
100 mg KAR5585 BID, Part 2 Cohort 1 (fasted state)
  time to peak plasma concentrations (range), Day 1: 0.75 to 2.0 h
100 mg KAR5585 BID, fed
  VZ/F, Day 14: 3520 L
  mean VZ/F, Day 1: 4100 L
[2]
  AUC0-12 (Mean): 62.8 ng·h/mL
  Cmax (Mean): 16.7 ng/mL
  Vz/F (Mean): 4900 L
  tmax (Median): 1.5 h
[3]
  AUC0-24 (Mean): 99.8 ng·h/mL
  C24 (Geo. Mean): BLQ
  C24 (Mean): BLQ
  Cmax (Mean): 21.3 ng/mL
  Vz/F (Geo. Mean): 4230 L
  Vz/F (Mean): 4420 L
  t1/2 (Mean): 2.49 h
  tmax (Median): 1.0 h
[4]
  AUC0-12 (Geo. Mean): 51.2 ng·h/mL
  AUC0-12 (Mean): 55.5 ng·h/mL
  AUC0-∞ (Geo. Mean): 51.7 ng·h/mL
  AUC0-∞ (Mean): 55.9 ng·h/mL
  Cmax (Geo. Mean): 17.7 ng/mL
  Cmax (Mean): 18.4 ng/mL
  Vz/F (Geo. Mean): 3830 L
  Vz/F (Mean): 4100 L
  t1/2 (Geo. Mean): 1.37 h
  tmax (Median): 0.75 h
[5]
  AUC0-∞ (Geo. Mean): 152 ng·h/mL
  Cmax (Geo. Mean): 39.8 ng/mL
  Cmax (Mean): 44.1 ng/mL
  Vz/F (Geo. Mean): 1730 L
  Vz/F (Mean): 1820 L
  t1/2 (Geo. Mean): 1.82 h
  tmax (Median): 2.0 h
[6]
  AUC0-12 (Geo. Mean): 127 ng·h/mL
  AUC0-∞ (Geo. Mean): 137 ng·h/mL
  Cmax (Geo. Mean): 29.8 ng/mL
  Cmax (Mean): 31.3 ng/mL
  Vz/F (Geo. Mean): 3210 L
  Vz/F (Mean): 3360 L
  t1/2 (Geo. Mean): 2.82 h
  tmax (Median): 2.0 h
[7]
  AUC0-12 (Geo. Mean): 142 ng·h/mL
  AUC0-12 (Mean): 145 ng·h/mL
  AUC0-24 (Geo. Mean): 278 ng·h/mL
  AUC0-∞ (Geo. Mean): 168 ng·h/mL
  Cmax (Mean): 28.4 ng/mL
  Vz/F (Geo. Mean): 3550 L
  Vz/F (Mean): 3910 L
  t1/2 (Mean): 3.80 h
  tmax (Median): 4.0 h
[8]
  AUC0-12 (Geo. Mean): 114 ng·h/mL
  AUC0-24 (Geo. Mean): 121 ng·h/mL
  AUC0-24 (Mean): 122 ng·h/mL
  AUC0-∞ (Geo. Mean): 121 ng·h/mL
  C24 (Geo. Mean): BLQ
  C24 (Mean): BLQ
  Cmax (Geo. Mean): 28.5 ng/mL
  Cmax (Mean): 30.0 ng/mL
  Vz/F (Geo. Mean): 3330 L
  Vz/F (Mean): 3520 L
  t1/2 (Geo. Mean): 2.64 h
  t1/2 (Mean): 2.73 h
  tmax (Median): 1.8 h
200 mg KAR5585 BID, fed
  VZ/F, Day 14: 7010 L
  mean VZ/F, Day 1: 3220 L
[9]
  Cmax (Mean): 87.8 ng/mL
  Vz/F (Geo. Mean): 3130 L
  Vz/F (Mean): 3220 L
  t1/2 (Geo. Mean): 2.81 h
  t1/2 (Mean): 2.91 h
  tmax (Median): 1.5 h
400 mg KAR5585 BID, fed
  VZ/F, Day 14: 10300 L
  mean VZ/F, Day 1: 6800 L
  tmax Day 7 evening dose: 6 h
[10]
  AUC0-12 (Geo. Mean): 25.3 ng·h/mL
  AUC0-12 (Mean): 2.81 ng·h/mL
  AUC0-∞ (Geo. Mean): 272 ng·h/mL
  AUC0-∞ (Mean): 305 ng·h/mL
  Cmax (Mean): 81.8 ng/mL
  Vz/F (Mean): 6800 L
  t1/2 (Geo. Mean): 3.00 h
  tmax (Median): 2.0 h
[11]
  AUC0-∞ (Geo. Mean): 633 ng·h/mL
  Cmax (Geo. Mean): 1100 ng/mL
  Vz/F (Geo. Mean): 3820 L
  Vz/F (Mean): 4030 L
  t1/2 (Geo. Mean): 4.18 h
  t1/2 (Mean): 4.33 h
  tmax (Median): 3.0 h
[12]
  AUC0-12 (Geo. Mean): 473 ng·h/mL
  AUC0-∞ (Geo. Mean): 577 ng·h/mL
  Cmax (Geo. Mean): 91.3 ng/mL
  Vz/F (Geo. Mean): 5680 L
  Vz/F (Mean): 6220 L
  t1/2 (Mean): 4.90 h
  tmax (Median): 2.0 h
[13]
  AUC0-12 (Geo. Mean): 394 ng·h/mL
  AUC0-∞ (Geo. Mean): 534 ng·h/mL
  Cmax (Mean): 69.0 ng/mL
  Vz/F (Geo. Mean): 6770 L
  Vz/F (Mean): 6950 L
  tmax (Median): 6.0 h
[14]
  AUC0-12 (Geo. Mean): 359 ng·h/mL
  AUC0-24 (Geo. Mean): 433 ng·h/mL
  AUC0-24 (Mean): 444 ng·h/mL
  AUC0-∞ (Geo. Mean): 465 ng·h/mL
  Cmax (Geo. Mean): 85.3 ng/mL
  Cmax (Mean): 89.0 ng/mL
  Vz/F (Geo. Mean): 9780 L
  Vz/F (Mean): 10300 L
  t1/2 (Geo. Mean): 6.08 h
  t1/2 (Mean): 6.45 h
  tmax (Median): 1.5 h
BID oral KAR5585 for 14 days
  study day by which steady-state plasma levels were achieved: ≤ 7 days
Day 7 AM
  tmax (Median): 3.0 h
[15]
  t1/2 (Geo. Mean): 4.21 h
  t1/2 (Mean): 4.30 h
[16]
  AUC0-12 (Geo. Mean): 217 ng·h/mL
  AUC0-12 (Mean): 230 ng·h/mL
  AUC0-∞ (Geo. Mean): 256 ng·h/mL
  AUC0-∞ (Mean): 273 ng·h/mL
  Vz/F (Geo. Mean): 5610 L
  Vz/F (Mean): 5960 L
Day 7 PM
  tmax (Median): 6.0 h
[17]
  AUC0-12 (Geo. Mean): 201 ng·h/mL
  AUC0-24 (Geo. Mean): 414 ng·h/mL
  AUC0-∞ (Geo. Mean): 289 ng·h/mL
  AUC0-∞ (Mean): 290 ng·h/mL
  Vz/F (Geo. Mean): 7000 L
  Vz/F (Mean): 8710 L
[18]
  AUC0-12 (Geo. Mean): 333 ng·h/mL
  AUC0-24 (Geo. Mean): 583 ng·h/mL
  AUC0-∞ (Geo. Mean): 406 ng·h/mL
  Cmax (Mean): 42.6 ng/mL
  Vz/F (Geo. Mean): 3010 L
  Vz/F (Mean): 3120 L
[19]
  AUC0-24 (Geo. Mean): 199 ng·h/mL
  AUC0-24 (Mean): 212 ng·h/mL
  C24 (Geo. Mean): BLQ
  C24 (Mean): BLQ
  Cmax (Geo. Mean): 43.5 ng/mL
  Cmax (Mean): 48.8 ng/mL
  Vz/F (Geo. Mean): 6430 L
  Vz/F (Mean): 7010 L

Source: patent US20200237759A1, “DOSAGE REGIME AND METHOD FOR TREATING PULMONARY ARTERIAL HYPERTENSION” (Altavant Sciences GmbH, priority 2019, published 2020)
